Reference: ChEMBL document CHEMBL2346631, “Thiazolidine-2,4-diones: progress towards multifarious applications” (Bioorg Med Chem, 2013)

Tested on: Mus musculus
Experiment: Hypoglycemic activity in KKAy mouse assessed as reduction of blood glucose level at 38 mg/kg/day, po relative to control
Assay type: functional
Set-up: scale not given: the % may be the effect or the level left

Cc1oc(-c2ccccc2)nc1CCOc1ccc(CC2C(=O)NOC2=O)cc1 (stereo unspecified) [REGLITAZAR]
Activity: 25%
